Experiment: mn = molality of the nth substance listed, in mol/kg
Conditions: 101 kPa, Liquid; for mass density: Vibrating tube method; for speed of sound: Pulse-echo method

O=S(=O)([O-])C(F)(F)F.O=S(=O)([O-])C(F)(F)F.O=S(=O)([O-])C(F)(F)F.[Gd+3] [gadolinium (III) trifluoromethanesulfonate] + CN(C)C=O
Conditions	mass density, 283.15 K [kg/m3]	mass density, 293.15 K [kg/m3]	mass density, 298.15 K [kg/m3]	mass density, 303.15 K [kg/m3]	mass density, 313.15 K [kg/m3]	mass density, 323.15 K [kg/m3]	mass density, 333.15 K [kg/m3]	speed of sound, 298.15 K [m/s]
m1 = 0.01967	966.39	956.87	952.11	947.35	937.76	928.14	918.46	1455.8
m1 = 0.02703	969.53	960.01	955.25	950.48	940.9	931.28	921.61	1455.2
m1 = 0.03489	972.9	963.38	958.61	953.84	944.26	934.64	924.97	1454.5
m1 = 0.04531	977.36	967.83	963.07	958.3	948.72	939.1	929.43	1453.6
m1 = 0.05527	981.65	972.13	967.36	962.59	953.01	943.4	933.75	1452.8
m1 = 0.07019	988.17	978.65	973.89	969.1	959.52	949.91	940.24	1451.5
m1 = 0.09028	997.06	987.52	982.77	977.97	968.39	958.77	949.11	1449.4
m1 = 0.108	1004.97	995.43	990.66	985.88	976.29	966.68	957.02	1448
m1 = 0.1249	1012.67	1003.13	998.36	993.58	983.99	974.37	964.71	1446.3
m1 = 0.146	1022.39	1012.83	1008.05	1003.28	993.69	984.07	974.42	1443.5
m1 = 0.1634	1030.52	1020.96	1016.18	1011.39	1001.8	992.19	982.54	1441.7

O=S(=O)([O-])C(F)(F)F.O=S(=O)([O-])C(F)(F)F.O=S(=O)([O-])C(F)(F)F.[Lu+3] [lutetium(III) trifluoromethanesulfonate] + CC(=O)N(C)C
Conditions	mass density, 283.15 K [kg/m3]	mass density, 293.15 K [kg/m3]	mass density, 298.15 K [kg/m3]	mass density, 303.15 K [kg/m3]	mass density, 313.15 K [kg/m3]	mass density, 323.15 K [kg/m3]	mass density, 333.15 K [kg/m3]	speed of sound, 298.15 K [m/s]
m1 = 0.02294	960.37	951.15	946.53	941.91	932.67	923.39	914.07	1455.7
m1 = 0.03057	963.84	954.61	950	945.38	936.11	926.83	917.5	1455.4
m1 = 0.0402	968.22	958.99	954.37	949.75	940.48	931.19	921.86	1455
m1 = 0.05161	973.43	964.19	959.57	954.95	945.68	936.38	927.05	1454.7
m1 = 0.06304	978.74	969.5	964.89	960.24	950.96	941.65	932.31	1454.3
m1 = 0.07962	986.46	977.21	972.58	967.95	958.66	949.34	939.99	1453.7
m1 = 0.1022	997.19	987.92	983.29	978.65	969.35	960.02	950.65	1452.2
m1 = 0.1222	1006.81	997.54	992.9	988.26	978.94	969.59	960.2	1451.5
m1 = 0.1412	1016.12	1006.84	1002.2	997.55	988.22	978.86	969.47	1450.5
m1 = 0.1647	1027.86	1018.56	1013.91	1009.26	999.92	990.55	981.13	1449
m1 = 0.1843	1037.79	1028.48	1023.83	1019.21	1009.81	1000.43	991.01	1448.3

Source: the NIST ThermoML archive (doi:10.1016/j.jct.2012.11.004)
